In PubChem BioAssay (NCI):
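Step 1: Grow cells in 96-well plates. Step 2: Expose to compound for 48 hours at 5 concentrations. Step 3: Interpolate endpoints linearly; if unreached, use highest concentration. The concentration for 50% growth inhibition is given as GI50. TGI: total growth inhibition.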

What was measured:
Assay in all cases: DTP human tumour cell line panel, 48 h
[1] = test system: EKVX NSCLC
[2] = test system: HCT-116 colon
[3] = test system: HT29 colon
[4] = test system: IGROV1 ovarian
[5] = test system: MALME-3M melanoma
[6] = test system: MCF7 breast
[7] = test system: NCI/ADR-RES ovarian
[8] = test system: PC-3 prostate
[9] = test system: T-47D breast
[10] = test system: TK-10 renal

Q: What does the source list for `Nc1ccc(-c2nc3cc(F)ccc3s2)cc1CO`?
A: TGI [1]: > 100 µM; TGI [2]: > 100 µM; TGI [3]: > 100 µM; TGI [4]: 63.4 µM; TGI [5]: > 100 µM; TGI [6]: 19.7 µM; TGI [7]: > 100 µM; TGI [8]: > 76.1 µM; TGI [9]: > 100 µM

Q: `CC(=O)c1ccc2c(c1)N(CCCN1CCN(CCO)CC1)c1ccccc1C2` was tested. Which TGI [1] did it give?
A: 33.6 µM

Q: And the TGI [2]?
A: 30.5 µM

Q: And the TGI [3]?
A: 22.4 µM

Q: What about the TGI [4] of the same compound?
A: 31.3 µM

Q: And the TGI [5]?
A: 33 µM

Q: What about the TGI [7] of the same compound?
A: 27.7 µM

Q: And the TGI [8]?
A: 27.8 µM

Q: And the TGI [9]?
A: 25.9 µM

Q: What about the TGI [10] of the same compound?
A: 29.1 µM

Q: Which TGI [1] does the source give for `CCCSc1ccc2[nH]c(N3C(=O)/C(=C/c4cc(OC)c(OC)c(OC)c4)N=C3c3ccccc3)cc2c1` here?
A: > 37.5 µM

Q: And the TGI [2]?
A: > 37.5 µM

Q: What about the TGI [3] of the same compound?
A: > 37.5 µM

Q: What about the TGI [4] of the same compound?
A: > 37.5 µM

Q: And the TGI [5]?
A: > 37.5 µM

Q: And the TGI [6]?
A: > 37.5 µM

Q: What about the TGI [7] of the same compound?
A: > 34.2 µM

Q: What about the TGI [8] of the same compound?
A: > 37.5 µM

Q: What about the TGI [9] of the same compound?
A: 37 µM

Q: What about the TGI [10] of the same compound?
A: > 37.5 µM

Q: `CSCCC(NC(=O)OCc1ccccc1)P(=O)(O)c1ccccc1` (stereo not given) was tested. Which TGI [2] did it give?
A: > 100 µM

Q: And the TGI [3]?
A: > 100 µM

Q: And the TGI [4]?
A: > 100 µM

Q: What about the TGI [6] of the same compound?
A: > 100 µM

Q: And the TGI [7]?
A: > 100 µM

Q: What about the TGI [8] of the same compound?
A: > 100 µM

Q: And the TGI [9]?
A: > 100 µM

Q: What about the TGI [10] of the same compound?
A: > 100 µM

Q: What does the source list for `Nc1ccc(Oc2ccc(C34CC5CC(C3)CC(c3ccc(Oc6ccc(N)cc6)cc3)(C5)C4)cc2)cc1`?
A: TGI [1]: > 66.5 µM; TGI [2]: > 44.8 µM; TGI [3]: > 55 µM; TGI [4]: 15.4 µM; TGI [5]: 28.7 µM; TGI [6]: 21.6 µM; TGI [7]: > 60.4 µM; TGI [8]: 25.7 µM; TGI [9]: 66.3 µM; TGI [10]: > 39.4 µM

Q: `O=C(O)C(O)C(O)C(O)C(=O)CO` (stereo not given) was tested. Which TGI [1] did it give?
A: > 100 µM

Q: And the TGI [2]?
A: > 100 µM

Q: And the TGI [3]?
A: > 100 µM

Q: What about the TGI [4] of the same compound?
A: > 100 µM

Q: And the TGI [5]?
A: > 100 µM

Q: What about the TGI [6] of the same compound?
A: > 100 µM

Q: What about the TGI [7] of the same compound?
A: > 100 µM

Q: And the TGI [8]?
A: > 100 µM

Q: And the TGI [9]?
A: > 100 µM

Q: And the TGI [10]?
A: > 100 µM

Q: What does the source list for `CC(C)(C)[Si](C)(C)OCC1OC(n2cnc3c(N)ncnc32)CC1OS(C)(=O)=O` (stereo not given)?
A: TGI [2]: > 100 µM; TGI [3]: > 100 µM; TGI [4]: > 100 µM; TGI [5]: > 100 µM; TGI [6]: > 100 µM; TGI [7]: > 100 µM; TGI [8]: > 100 µM; TGI [9]: > 100 µM; TGI [10]: > 100 µM

Q: Which GI50 [1] does the source give for `CCCN1C(=O)CSC1=Nc1ccc2cc3ccc(N=C4SCC(=O)N4CCC)cc3nc2c1` here?
A: > 100 µM

Q: What about the TGI [1] of the same compound?
A: > 100 µM

Q: And the GI50 [2]?
A: 14.3 µM

Q: What about the TGI [2] of the same compound?
A: 34.8 µM

Q: And the GI50 [3]?
A: 90.6 µM

Q: What about the TGI [3] of the same compound?
A: > 100 µM

Q: What about the GI50 [5] of the same compound?
A: 17.5 µM

Q: And the TGI [5]?
A: 81.7 µM

Q: What about the GI50 [6] of the same compound?
A: 77.6 µM

Q: And the TGI [6]?
A: > 100 µM

Q: And the GI50 [7]?
A: 63.1 µM

Q: What about the TGI [7] of the same compound?
A: > 100 µM

Q: What about the GI50 [8] of the same compound?
A: 78.1 µM

Q: What about the TGI [8] of the same compound?
A: > 100 µM

Q: And the GI50 [9]?
A: 18.2 µM

Q: And the TGI [9]?
A: > 100 µM

Q: What about the GI50 [10] of the same compound?
A: 32.1 µM

Q: And the TGI [10]?
A: 90.6 µM

Q: What does the source list for `COc1ccc(C2c3cc4c(cc3OC(O)(CO)C2C(=O)O)OCO4)cc1` (stereo not given) (tested in a mixture with another compound)?
A: TGI [1]: 88 µM; TGI [2]: 33.1 µM; TGI [3]: 52.4 µM; TGI [4]: 43.5 µM; TGI [5]: 75.9 µM; TGI [10]: > 100 µM

Q: Which results are given for `Cc1cnoc1NS(=O)(=O)c1ccc(Nc2nnc(/C=C/c3c(O)ccc4ccccc34)c(=O)n2N)cc1`?
A: TGI [1]: 71.9 µM; TGI [2]: 55.9 µM; TGI [3]: > 100 µM; TGI [4]: > 100 µM; TGI [5]: 65.5 µM; TGI [6]: 47.5 µM; TGI [7]: 66.9 µM; TGI [9]: 82 µM

Q: `CC(C)C1OC(=O)/C=C/C=C/C=C/C=C/C=C/CC(O)C(C)C(O)CC(O)CC(O)CC(O)CC(O)CC(O)CC(O)/C=C/C1C` (stereo not given) was tested. Which TGI [1] did it give?
A: > 100 µM

Q: What about the TGI [3] of the same compound?
A: > 100 µM

Q: And the TGI [4]?
A: > 100 µM

Q: And the TGI [5]?
A: > 100 µM

Q: What about the TGI [6] of the same compound?
A: > 100 µM

Q: And the TGI [7]?
A: > 100 µM

Q: And the TGI [8]?
A: > 100 µM

Q: What about the TGI [10] of the same compound?
A: > 100 µM

Q: How did the TGI [2] turn out when `COC(=S)OC1CC(n2cnc3c(N)ncnc32)OC1CO[Si](C)(C)C(C)(C)C` (stereo not given) was run?
A: 31.3 µM

Q: And the TGI [3]?
A: 30.1 µM

Q: What about the TGI [4] of the same compound?
A: 43.8 µM

Q: And the TGI [5]?
A: 66.8 µM

Q: And the TGI [6]?
A: 44.8 µM

Q: What about the TGI [7] of the same compound?
A: 82.6 µM

Q: What about the TGI [8] of the same compound?
A: 44.1 µM

Q: And the TGI [9]?
A: 88.8 µM

Q: What about the TGI [10] of the same compound?
A: > 100 µM

Q: How did the TGI [1] turn out when `COc1cc2c(cc1C)NC(=O)/C2=C/c1c(Cl)n(-c2ccccc2)c2ccccc12` was run?
A: > 100 µM

Q: What about the TGI [2] of the same compound?
A: 61.1 µM

Q: What about the TGI [3] of the same compound?
A: > 100 µM

Q: And the TGI [4]?
A: > 100 µM

Q: What about the TGI [5] of the same compound?
A: 37.2 µM

Q: What about the TGI [6] of the same compound?
A: > 100 µM

Q: And the TGI [7]?
A: 67.7 µM

Q: And the TGI [8]?
A: > 100 µM

Q: What about the TGI [9] of the same compound?
A: 40.4 µM

Q: What about the TGI [10] of the same compound?
A: > 100 µM

Q: Which TGI [1] does the source give for `CCOC(=O)C(=O)NCCCN1CCOCC1` here?
A: > 100 µM

Q: And the TGI [2]?
A: > 100 µM

Q: And the TGI [3]?
A: > 100 µM

Q: What about the TGI [4] of the same compound?
A: > 100 µM

Q: And the TGI [5]?
A: > 100 µM

Q: What about the TGI [10] of the same compound?
A: > 100 µM
